Data reported in article PMC7581941, “Schedule-Dependent Synergy Between the Histone Deacetylase Inhibitor Belinostat and the Dihydrofolate Reductase Inhibitor Pralatrexate in T-and B-cell Lymphoma Cells in vitro” (Frontiers in Cell and Developmental Biology, 2020).
Several values for one entry are separate records, joined by “and”; a condition that tells them apart may be missing. Equal values may be shown once. Read-outs that look alike come from different tables or passages of the source.

Key:
SUDHL-5 cells = assay: Cell growth inhibition (MTT) and median-drug effect analysis, SUDHL-5; format: cell-based
Description: (§1) Cells were treated immediately with a drug dilution series in cell culture medium (75 μL/well). After an incubation period of approximately 72 h, growth in the 96-wells plates was assessed by adding 15 μL MTT solution (stock solution 5 mg/ml in PBS, final concentration 0.5 mg/ml in culture medium) to each well. After incubation for 3 h in the 5% CO2 incubator with 100% humidity at 37°C, 150 μL acidified 2-propanol was added to the plates to dissolve the formazan crystals. The yellow-colored MTT stock solution is taken up and reduced to a purple formazan in living cells, which directly correlates to the amount of viable cells. As final step, the plates were measured at 540 (or 492) nm by the SPECTRAfluor spectrophotometer.
Drug interaction in combination experiments was evaluated using the median-drug effect analysis using CalcuSyn software ([Bijnsdorp et al., 2011]). In order to evaluate combination indexes [CI] from different experiments, the CI values at Fraction Affected (FA) values >0.5 (preferably around 0.5, 0.75, and 0.9) were averaged for each specific experiment. The means of the separate experiments were subsequently averaged so that a mean ± Standard Error of the Mean (SEM) was calculated from three or more separate experiments. […] Drug combinations were designed based on the standard CalcuSyn approach in which a series of drug concentrations were combined in a fixed molar ratio, based on the IC50 of each drug. A variation of this approach was a sequential scheduling in which cells were exposed for 72 h to BLS, while in the combination PLX was added after 24 h and cells were exposed from 24 to 72 h. In the non-fixed ratio approach one drug was used at the IC25 (concentration that results in 25% growth inhibition) and the other drug was added in a concentration range.

Karpas-299 = assay: Cell growth inhibition (MTT) and median-drug effect analysis, Karpas-299; format: cell-based; settings: Homo sapiens, read-out: IC50 (50% growth inhibition); Karpas-299, 72 h exposure
Description: as §1
(§2) Drug interaction in combination experiments was evaluated using the median-drug effect analysis using CalcuSyn software ([Bijnsdorp et al., 2011]). In order to evaluate combination indexes [CI] from different experiments, the CI values at Fraction Affected (FA) values >0.5 (preferably around 0.5, 0.75, and 0.9) were averaged for each specific experiment. The means of the separate experiments were subsequently averaged so that a mean ± Standard Error of the Mean (SEM) was calculated from three or more separate experiments. […]

cell proliferation = tested on: cell proliferation; parameters: method as in Tonner et al., 2006; settings: ref Tonner et al., 2006; cited from earlier work
HT cells [1] = assay: FACS propidium iodide staining: cell cycle distribution and cell death, HT; format: cell-based; settings: drugs at their IC50, untreated 3.5%
Description: (§3) Propidium iodide staining (DNA staining) was used to determine cell cycle distribution and the extent of cell death. Cells (120,000 per well in a 24-wells plate) were exposed to PLX or BLS or the combination for 24, 48, or 72 h. Cells were harvested, suspended in 1.0 ml phosphate buffered saline/1% Bovine serum albumin and fixed with 70% ethanol. After centrifugation the pellet was resuspended in hypotonic propidium iodide (0.1 mg/ml), Triton-X-100 (0.1%), sodium citrate (1 mg/ml) and RNAse A (0.5 mg/ml) (final concentrations in saline) and stored in dark on ice for 30 min ([De Wilt et al., 2012]). DNA content of the cells to determine cell cycle effects and cell kill was analyzed by a FACScalibur (Becton Dickinson Immunocytometry Systems, San Jose, CA, United States) with an acquisition of 10,000 events as described previously ([De Wilt et al., 2012]).

FRα = molecular target: T1, FRα (Homo sapiens, UniProt P15328); assay: Intact cell binding assay, displacement of radio-active folic acid from KB cells; settings: inverse ratio of compound to displace 50% of radio-active folic acid, folic acid set at 1
T1 construct: endogenous in cells; host or cells: KB cells
T1 sequence (P15328 25-257): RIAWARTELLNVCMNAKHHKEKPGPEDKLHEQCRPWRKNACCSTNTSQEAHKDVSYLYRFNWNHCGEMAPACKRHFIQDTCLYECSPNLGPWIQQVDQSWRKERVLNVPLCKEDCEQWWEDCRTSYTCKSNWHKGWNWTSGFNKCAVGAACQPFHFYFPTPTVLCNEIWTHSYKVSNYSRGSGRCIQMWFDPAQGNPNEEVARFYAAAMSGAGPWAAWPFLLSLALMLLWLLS
Description: (§4) In order to determine to which extent PLX was a substrate for either the folate receptors, RFC or PCFT we used competition experiments in cell lines overexpressing either transporter ([Westerhof et al., 1995a], [b]; [Jansen et al., 1997]; [Ifergan et al., 2008]; [Lasry et al., 2008]; [van der Heijden et al., 2009]). For FRα and FRβ, we used an intact cell binding assay for competitive binding with KB cells and CHO-FRβ cells, respectively. […] For RFC we used a competition assay with 5 μM [^3H]-l-LV in CCRF-CEM/7A cells (RFC+++) for 2 min at 37°C. CEM-7A cells overexpress the RFC 30-fold over wild-type CCRF-CEM cells ([Jansen et al., 1990], [1997]).

PCFT = molecular target: T2, PCFT (Homo sapiens, UniProt Q96NT5); assay: PCFT competition assay: inhibition of [3H]-l-LV influx in CHO-cells lacking RFC and transfected with PCFT; format: cell-based; settings: for IC50: 2.5 μM [3H]-l-LV, pH 5.5, 3 min, 37°C, read-out: PCFT: concentration of unlabeled drug necessary to inhibit [3H]-LV influx
T2 construct: expressed in transfected cells; host or cells: CHO cells lacking RFC
T2 sequence (Q96NT5 1-459): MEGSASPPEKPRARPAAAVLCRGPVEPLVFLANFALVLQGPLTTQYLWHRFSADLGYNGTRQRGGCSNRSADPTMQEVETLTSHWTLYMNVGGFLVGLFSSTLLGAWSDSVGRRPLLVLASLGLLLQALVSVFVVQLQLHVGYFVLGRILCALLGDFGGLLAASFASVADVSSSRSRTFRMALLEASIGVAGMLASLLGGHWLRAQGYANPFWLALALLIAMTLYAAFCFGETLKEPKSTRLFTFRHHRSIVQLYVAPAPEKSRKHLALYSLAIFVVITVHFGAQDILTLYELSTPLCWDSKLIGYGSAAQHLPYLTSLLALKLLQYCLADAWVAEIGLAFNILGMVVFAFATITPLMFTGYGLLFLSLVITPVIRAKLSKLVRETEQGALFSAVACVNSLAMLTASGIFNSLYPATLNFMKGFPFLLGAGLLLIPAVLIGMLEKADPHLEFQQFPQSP
Description: The affinity for PCFT of PLX was assessed in competition with 2.5 μM ^3H-l-LV at pH 5.5 in CHO-cells lacking RFC and transfected with PCFT. […] […] Also for PCFT relative affinities were expressed as the concentration of unlabeled drug necessary to inhibit [^3H]-LV influx.

SUDHL-4 cells [2] = assay: FACS propidium iodide staining: cell death, SUDHL-4; format: cell-based; settings: drugs at their IC50, untreated 5.0%
Description: as §3

Hut-29 = assay: Cell growth inhibition (MTT) and median-drug effect analysis, Hut-29; format: cell-based; settings: read-out: IC50 (50% growth inhibition); Hut-29, 72 h exposure
Description: as §1, §2

RFC = molecular target: T3, RFC (Homo sapiens, UniProt P41440); assay: RFC competition assay: inhibition of [3H]-l-LV uptake in CCRF-CEM/7A cells (RFC+++); format: cell-based; settings: for IC50: 5 μM [3H]-l-LV, 2 min, 37°C, CCRF-CEM/7A cells, read-out: RFC: concentration of unlabeled drug necessary to inhibit [3H]-l-LV uptake by 50%
T3 construct: CEM-7A cells overexpress the RFC 30-fold over wild-type CCRF-CEM cells; endogenous in cells; host or cells: CCRF-CEM/7A (CEM-7A) cells
T3 sequence (P41440 1-591): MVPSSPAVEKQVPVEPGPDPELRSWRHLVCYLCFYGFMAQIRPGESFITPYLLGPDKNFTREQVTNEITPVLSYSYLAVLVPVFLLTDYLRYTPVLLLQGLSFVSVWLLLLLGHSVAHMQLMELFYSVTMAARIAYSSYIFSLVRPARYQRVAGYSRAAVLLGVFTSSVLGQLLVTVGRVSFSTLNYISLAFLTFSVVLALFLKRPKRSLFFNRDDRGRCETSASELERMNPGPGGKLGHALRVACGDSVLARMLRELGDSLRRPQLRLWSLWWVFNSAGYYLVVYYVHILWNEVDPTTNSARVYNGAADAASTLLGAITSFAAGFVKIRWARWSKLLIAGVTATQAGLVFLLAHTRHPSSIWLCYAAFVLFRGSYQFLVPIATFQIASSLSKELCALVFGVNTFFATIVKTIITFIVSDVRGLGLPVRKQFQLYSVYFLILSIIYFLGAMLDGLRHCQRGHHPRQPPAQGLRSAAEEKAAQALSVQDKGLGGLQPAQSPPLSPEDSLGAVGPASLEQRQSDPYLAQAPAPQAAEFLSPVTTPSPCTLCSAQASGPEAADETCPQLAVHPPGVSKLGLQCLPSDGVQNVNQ
Description: For FRα and FRβ, we used an intact cell binding assay for competitive binding with KB cells and CHO-FRβ cells, respectively. […] For RFC we used a competition assay with 5 μM [^3H]-l-LV in CCRF-CEM/7A cells (RFC+++) for 2 min at 37°C.
Transport was determined by evaluation of the uptake of 5 μM [^3H]-l-LV for 2 min in CCRF-CEM-7A cells, which overexpress RFC. […] Values are from one representative experiment in triplicate; performed three times. Error bars represent SEM, when not visible, they are within the size of the marker.

CCRF-CEM = assay: Cell growth inhibition (MTT), CCRF-CEM; format: cell-based, human
Description: as §1

HT cells [3] = assay: Cell growth inhibition (cell counting) and median-drug effect analysis, HT; format: cell-based; settings: for IC50: HT
FRβ = molecular target: T4, FRβ (Homo sapiens, UniProt P14207); assay: Intact cell binding assay, displacement of radio-active folic acid from CHO-FRβ cells; settings: folic acid set at 1
T4 construct: expressed in transfected cells; host or cells: CHO-FRβ cells
T4 sequence (P14207 17-255, species assumed): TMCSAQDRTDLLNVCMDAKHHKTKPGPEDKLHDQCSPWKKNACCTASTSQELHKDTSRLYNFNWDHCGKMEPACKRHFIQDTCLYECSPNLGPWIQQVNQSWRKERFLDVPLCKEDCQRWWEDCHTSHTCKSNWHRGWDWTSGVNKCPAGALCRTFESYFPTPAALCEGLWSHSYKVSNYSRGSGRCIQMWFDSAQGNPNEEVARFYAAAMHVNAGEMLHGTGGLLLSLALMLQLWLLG
Description: as §4

SUDHL-4 cells [4] = assay: Cell growth inhibition (cell counting) and median-drug effect analysis, SUDHL-4; format: cell-based; settings: Homo sapiens, SU-DHL-4, read-out: IC50 (50% growth inhibition); SUDHL 4, 72 h exposure
lymphoma cell lines = assay: Cell growth inhibition and median-drug effect analysis, panel of lymphoma cell lines; format: cell-based; settings: 72 hr exposure, panel of cell lines; read-out: IC50, range over the cell lines
Description: (§5) Cells were plated in 96-wells flat bottom plates, at 3,000 or 6,000 cells per well in culture medium (75 μL/well) or in 24-wells plates (60,000 cells/well) for the counting assays for which a Coulter Counter was used. Cells were treated immediately with a drug dilution series in cell culture medium (75 μL/well). […] After incubation for 3 h in the 5% CO2 incubator with 100% humidity at 37°C, 150 μL acidified 2-propanol was added to the plates to dissolve the formazan crystals. The yellow-colored MTT stock solution is taken up and reduced to a purple formazan in living cells, which directly correlates to the amount of viable cells. As final step, the plates were measured at 540 (or 492) nm by the SPECTRAfluor spectrophotometer. […] Drug interaction in combination experiments was evaluated using the median-drug effect analysis using CalcuSyn software ([Bijnsdorp et al., 2011]). […] The means of the separate experiments were subsequently averaged so that a mean ± Standard Error of the Mean (SEM) was calculated from three or more separate experiments. […] Drug combinations were designed based on the standard CalcuSyn approach in which a series of drug concentrations were combined in a fixed molar ratio, based on the IC50 of each drug. A variation of this approach was a sequential scheduling in which cells were exposed for 72 h to BLS, while in the combination PLX was added after 24 h and cells were exposed from 24 to 72 h.

Jeko-1 = assay: Cell growth inhibition (MTT) and median-drug effect analysis, Jeko-1; format: cell-based; settings: Homo sapiens, read-out: IC50 (50% growth inhibition); Jeko-1, 72 h exposure
Description: as §5, with “A variation of this approach was a sequential scheduling in which cells were exposed for 72 h to BLS, while in the combination PLX was added after 24 h and cells were exposed from 24 to 72 h.” left out

C#CCC(Cc1cnc2nc(N)nc(N)c2n1)c1ccc(C(=O)N[C@@H](CCC(=O)O)C(=O)O)cc1 (stereo partly shown) [PLX, Pralatrexate]
IC50 (SUDHL-5 cells; Homo sapiens, SU-DHL-5, read-out: IC50 (50% growth inhibition), SUDHL 5, 72 h exposure): 5.5 ± 0.9 nM | IC25 (concentration that results in 25% growth inhibition) (SUDHL-5 cells; SUDHL-5 cells, 72 h): ~4 nM | IC50 (Karpas-299): 24.7 ± 5.3 nM | potency in suppressing cell proliferation relative to methotrexate (cell proliferation): one log more potent | accumulation of cells in the sub-G1 phase (cell death) (HT cells [1]): 13% | FR-α relative affinity (FRα): 0.0035 and 0.0035 ± 0.0005 | IC50 (PCFT): 15000 nM and 14800 nM | substrate for PCFT at physiological pH (PCFT; pH 7.4): very poor substrate | accumulation of cells in the sub-G1 phase (cell death) (SUDHL-4 cells [2]): 22.1% | IC50 (Hut-29): 2.8 ± 0.5 nM | RFC substrate affinity, fold better compared to methotrexate (RFC): 6 fold | RFC substrate affinity, fold better than levoleucovorin (l-LV) (RFC): 2 fold | IC50 (RFC): 2800 ± 100 nM | reversal of cytotoxicity by l-LV (CCRF-CEM; 5 μM l-LV, CEM cells): 2965 fold | IC50 (CCRF-CEM; Homo sapiens, read-out: IC50 (50% growth inhibition), CCRF-CEM, 72 h exposure): 2.6 ± 0.4 nM | IC25 (concentration that results in 25% growth inhibition) (HT cells [3]; HT cells, 72 h): ~5 nM | IC50 (HT cells [3]; Homo sapiens, 72 h, read-out: IC50 (50% growth inhibition), HT, 72 h exposure): ~10 nM | IC50 (HT cells [3]; read-out: IC50 (50% growth inhibition), 72 h exposure): 7.4 ± 0.5 nM | FRβ relative affinity (FRβ): < 0.001 | IC50 (SUDHL-4 cells [4]): 5.6 ± 0.4 nM | IC50 (lymphoma cell lines): 2.8 to 20 nM | IC50 (Jeko-1): 18.7 ± 4.2 nM

Nc1nc(=O)c2c([nH]1)NC[C@H](CNc1ccc(C(=O)N[C@@H](CCC(=O)O)C(=O)O)cc1)N2C=O [l-LV, l-Leucovorin]
FR-α relative affinity (FRα): 0.073 ± 0.0010 | IC50 (PCFT): 4000 ± 100 nM | IC50 (RFC): 5500 ± 700 nM
